For series [1], the system named is enzyme decomposing R--Val--Val--X--Ala--X to Val--X--Ala--X. The experiment in a line: Effect of various inhibitors and metal ions on enzyme activity. The class given is biochemical, Bacillus sphaericus ATCC 14577.
The test system of another series is Stomach ulcers in rats. Nature of the series: Stress stomach ulcers in rats (method of Takagi et al.). The format is in vivo. Conditions: 50 - 200 mg/kg immediately after the stress and once daily for 4 days. The protocol: Stomach ulcers in rats made by the method described by Takagi et al. in the Japanese Journal of Pharmacology, 18, 9-19, 1958, that is, placing male rats in a cage at 23° C. for 22 hours, are protected or therapeutically treated by the compounds. […] When the dose was 10 mg/kg, the inhibition percentage of the ulcers was 50 - 60%.

The target in a further series is Cathepsin D (Homo sapiens, UniProt P07339). Nature of the series: anti-cathepsin D activity. The format is biochemical. The protocol:
(§1) As an example of one of the physiological activities of the peptide and N-acyl derivatives thereof obtained according to the present invention, anti-pepsin and anti-cathepsin D activities and also acute toxicity are given in Table 8. The activities (ID50) were assayed according to the method described above and The Journal of Antibiotics 25 689 (1972). The anti-protease activities of the peptide and N-acyl derivatives thereof are extremely high.

Series [2] concerns mice. Nature of the series: Acute toxicity by abdominal injection. The class given is in vivo. The protocol: as §1
Acute toxicity was examined by administering the compounds to the mice by
(§2) The peptide Val--X--Ala--X and its N-acyl derivatives according to this invention have low toxicity; mice, dogs, rats and rabbits tolerated oral administration of more than 2.000 mg/kg. of the compounds, and LD50 of the compounds for animals when administered by intraperitoneal injections are shown in Table 8. Daily 250 mg/kg oral administrations of each of the compounds to rats for 90 days caused no toxicity, and the rats grew at the normal growth rate.

A further series concerns the target T1, pepsin (Sus scrofa, UniProt P00791).
T1 construct: purchased SIGMA 2XCRY (grade as printed; no catalogue number)
Nature of the series: Assay of pepsin-inhibitory activity (casein digestion). The class given is biochemical. The protocol:
Assay of pepsin-inhibitory activity in this invention was performed according to the following method: A mixture of 1 ml of 0.6%, by weight, highly purified case in dissolved in 0.08 M lactate buffer solution, pH 2.2, 0.7 ml of 0.02M KCl--HCl buffer solution, pH 2.0, and 0.2 ml of solution containing the compound sample was incubated at 37° C for 3 minutes. To this mixture 4 meg of pepsin (SIGMA, 2XCRY) dissolved in 0.1 ml of 0.2M KCl--HCl buffer solution were added. The mixture was incubated at 37° C for 30 minutes. The reaction was stopped by the addition of 2.0 ml of 1.7M perchloric acid. After 1 hour at room temperature, the optical density (a) of the supernatant liquid was read at 280 mμ. An inhibition rate was obtained according to:
where (b) is the optical density at 280 mμ of the tube without the sample solution.
The ID50 is defined as the amount necessary for 50% of the inhibition rate.

Series [3] has as its system enzyme decomposing R--Val--Val--X--Ala--X to Val--X--Ala--X. The experiment in a line: Substrate specificity of the purified enzyme. Conditions: in words. The class given is biochemical, Bacillus sphaericus ATCC 14577. The protocol: A medium having the same composition as in Experiment 1 was prepared and 50 ml of the medium was poured into a 500 ml flask. After sterilization at 120° C for 10 minutes, the medium was inoculated with Bacillus sphaericus ATCC 14577 and incubated on a reciprocal shaker (120 r.p.m.) at 30° C for 24 hours to obtain a seed culture. To a 20l jar fermentor was added to 10l of the medium having the same composition, sterilized at 120° C for 15 minutes and inoculated with the seed culture. The cultivation was performed at 30° C with agitation (300 r.p.m.) and aeration (5l/minute).
After 15 hours growth, isovalery-L-valvy-L-valyl-4-amino-3-hydroxy-6-methylheptanoyl-L-alanyl-4-amino-3-hydroxy-6-methylheptanoic acid was added to the culture in a concentration of 50 meg/ml and the cultivation was continued for another 33 hours. Cells were harvested by centrifugation with a Spharpless centrifuge, suspended in 2l of cold 0.01M phosphate buffer, pH 7.0, and disrupted by sonication 20 Kc for 2 minutes. These and the following procedures were carried out under 4° C. A supernatant from the sonicate was heated at 60° C for 10 minutes at pH 7.0. The resulting precipitate was removed by centrifugation and 3.8 g of streptomycin sulfate was added to 1.7l of the supernatant. Precipitated nucleic acid was removed by centrifugation. […]

The nature of a further series: Solubility in solvents. The format is physicochemical.
For a further series, the system named is rats. Nature of the series: Tolerated oral administration. The class given is in vivo. On the procedure: as §2
Another series concerns rabbits. Nature of the series: Tolerated oral administration. The class given is in vivo. The protocol:
as §2

Another series relates to dogs. Nature of the series: Tolerated oral administration. The class given is in vivo. The protocol:
as §2

Series [4] deals with mice. The experiment in a line: Tolerated oral administration. The class given is in vivo. The protocol: as §2
Where [5] appears, read: Concentration 2 mM, control 100.
[6] abbreviates: Concentration 10 mM, control 100.

Structures are written as SMILES. Like-named read-outs stand apart in the source and are kept apart here.

Sequence of Cathepsin D (P07339 65-412, species assumed): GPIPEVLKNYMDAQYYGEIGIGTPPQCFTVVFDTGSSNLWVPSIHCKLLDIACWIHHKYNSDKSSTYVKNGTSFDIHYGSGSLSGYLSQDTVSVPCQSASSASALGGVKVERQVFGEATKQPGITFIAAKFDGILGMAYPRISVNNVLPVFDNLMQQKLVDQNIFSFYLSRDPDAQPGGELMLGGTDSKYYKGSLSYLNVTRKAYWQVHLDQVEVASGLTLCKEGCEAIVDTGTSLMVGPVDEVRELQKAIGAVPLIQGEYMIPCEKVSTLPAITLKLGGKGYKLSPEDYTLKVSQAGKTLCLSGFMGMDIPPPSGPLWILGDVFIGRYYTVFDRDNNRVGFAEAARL
T1 sequence (P00791 60-385): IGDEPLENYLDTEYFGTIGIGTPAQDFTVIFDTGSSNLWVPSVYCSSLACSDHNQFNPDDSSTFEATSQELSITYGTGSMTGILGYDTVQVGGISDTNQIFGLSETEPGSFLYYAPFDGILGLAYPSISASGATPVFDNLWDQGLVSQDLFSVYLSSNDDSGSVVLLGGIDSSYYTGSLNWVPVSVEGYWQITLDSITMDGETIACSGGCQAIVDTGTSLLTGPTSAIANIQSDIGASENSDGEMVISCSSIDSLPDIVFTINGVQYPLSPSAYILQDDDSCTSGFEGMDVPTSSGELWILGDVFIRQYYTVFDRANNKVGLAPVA

On to `CC(=O)[O-].CC(=O)[O-].[Hg+2]` [Mercuric Acetate], for which, in series [1], the Relative activity is 0.
As for `CC(C)CC(=O)N[C@H](C(=O)N[C@H](C(=O)N[C@@H](CC(C)C)[C@@H](O)CC(=O)N[C@@H](C)C(=O)N[C@@H](CC(C)C)[C@@H](O)CC(=O)O)C(C)C)C(C)C` [pepstatin], the cure of ulcers result with Stomach ulcers in rats was “rapid cure of ulcers”.
By IC50 is commonly meant the point on the concentration scale where inhibition reaches its midpoint. Regarding `CC(C)C[C@H](NC(=O)[C@H](C)NC(=O)C[C@H](O)[C@H](CC(C)C)NC(=O)[C@@H](NC(=O)c1ccccc1)C(C)C)[C@@H](O)CC(=O)O` [Benzoyl--Val--X--Ala--X, N--benzoyl--Val--X--Ala--X], the IC50 was 82.4 nM against Cathepsin D and 51.1 nM against pepsin. In addition, the “Acute toxicity(mg/kg) LD50” value in the series on mice [2] worked out at 1350 mg/kg.
`CC(C)C[C@H](NC(=O)[C@H](C)NC(=O)C[C@H](O)[C@H](CC(C)C)NC(=O)[C@@H](NC(=O)C(C)C)C(C)C)[C@@H](O)CC(=O)O` [Isobutyryl--Val--X--Ala--X, N--isobutyryl--Val--X--Ala--X]: inhibition at Cathepsin D was half-maximal at 489 nM (IC50). This lies in the sub-micromolar range.
Consider `O=C(O)c1cc[c]([Hg][Cl])cc1` [p-Chloromercuribenzoate], for which the “Inhibition of the enzyme” value in series [1] is on record as “Inhibition”. The Relative activity in [1] (setting [5]) came to 2.
With `CC(=O)N[C@H](C(=O)NC(CC(C)C)C(O)CC(=O)N[C@@H](C)C(=O)NC(CC(C)C)C(O)CC(=O)O)C(C)C` (stereo partly drawn) [Acetyl--Val--X--Ala--X, N--acetyl--Val--X--Ala--X], the 50% inhibitory concentration (IC50) was 771 nM at Cathepsin D and 56.9 nM against pepsin. For the same molecule, the “Acute toxicity(mg/kg) LD0” value in the series with mice [2] is given as at least 4000 mg/kg.
In [1], `[N-]=[N+]=[N-].[Na+]` [NaN3] returned a Relative activity of 100.
On to `CC(C)CC(=O)N[C@H](C(=O)N[C@@H](CC(C)C)[C@@H](O)CC(=O)N[C@@H](C)C(=O)N[C@@H](CC(C)C)[C@@H](O)CC(=O)O)C(C)C` [Isovaleryl--Val--X--Ala--X, N--isovaleryl--Val--X--Ala--], for which, at Cathepsin D, the IC50 was 76.7 nM. Moreover, the “Acute toxicity(mg/kg) LD0” value in the series with mice [2] is on record as at least 3000 mg/kg.
Turning to `[Cl][Hg][Cl]` [HgCl2], the “Inhibition of the enzyme” value in [1] (2mM) was “Inhibition”.
`[Cl-].[Cl-].[Zn+2]` [Zinc Chloride]: the Relative activity in series [1] (setting [5]) came out at 66; in [1] (setting [6]), 44.
Take `[Ca+2].[Cl-].[Cl-]` [Calcium Choride]: in [1] (10 mM), the increase in activity was 29%. Also, the figures for the Relative activity in series [1] (setting [5]) and in [1] (setting [6]) were 110 and 129, respectively.
Molecule `O=C(O)CI` [Monoiodoacetic Acid] came in with a Relative activity in series [1] of 84.
With `CCCCCCCCCCCCCCCC(=O)N[C@H](C(=O)N[C@@H](CC(C)C)[C@@H](O)CC(=O)N[C@@H](C)C(=O)N[C@@H](CC(C)C)[C@@H](O)CC(=O)O)C(C)C` [Palmitoyl--Val--X--Ala--X, N--palmitoyl--Val--X--Ala--X], inhibition at Cathepsin D was half-maximal at 1480 nM (IC50).
Regarding `CC(C)C[C@H](NC(=O)[C@H](C)NC(=O)C[C@H](O)[C@H](CC(C)C)NC(=O)[C@@H](NC(=O)C(C)Oc1ccccc1)C(C)C)[C@@H](O)CC(=O)O` (stereo partly drawn) [Phenoxypropionyl--Val--X--Ala--X, N--2--phenoxypropionyl--Val--X--Ala--X], on Cathepsin D, the IC50 is 15.4 nM. Moreover, in the series with mice [2], the “Acute toxicity(mg/kg) LD50” value was determined as 2100 mg/kg.
As to `OCCS` [β-Mercaptoethanol], in series [1] (2mM), the “Inhibition of the enzyme” value was “Inhibition”. The Relative activity in series [1] (setting [5]) was 0.
On the same counts, the results for `c1cnc2c(c1)ccc1cccnc12` [o-Phenanthroline] are “Inhibition” and 0.
As for `[Cl][Co][Cl]` [Cobalt Chloride], the increase in activity in series [1] (2mM) is 34%; in [1] (10 mM), 66%.
In turn, `CC(C)CC(NC(=O)[C@H](C)NC(=O)CC(O)C(CC(C)C)NC(=O)[C@@H](NC(=O)COc1ccccc1)C(C)C)C(O)CC(=O)O` (stereo partly drawn) [Phenoxyacetyl--Val--X--Ala--X, n--phenoxyacetyl--Val--X--Ala--X] had a half-inhibitory concentration (IC50) against Cathepsin D of 12.6 nM. Moreover, in the series on mice [2], the “Acute toxicity(mg/kg) LD50” value was 1500 mg/kg.
`CC(=O)[O-].CC(=O)[O-].[Pb+2]` [Lead Acetate]: the Relative activity in series [1] was 43.
Turning to `O=C1CCC(=O)N1Br` [N-Bromosuccinimide], the “Inhibition of the enzyme” value in [1] (2mM) is “Inhibition”. Moreover, the Relative activity in series [1] (setting [5]) worked out at 0.
In series [1] (setting [5]), `O=C(O)CN(CCN(CC(=O)O)CC(=O)O)CC(=O)O` [Ethylenediaminetetraacetic Acid] showed a Relative activity of 30.
In the case of `O[C@H](CS)[C@H](O)CS` (racemic) [Dithiothreitol], the “Inhibition of the enzyme” value in series [1] (2mM) is “Inhibition”. Besides, the Relative activity in series [1] (setting [5]) stood at 0.
With `CC(C)CC(=O)N[C@H](C(=O)O)C(C)C` [IVA--Val], in [3], the “susceptibility to the enzyme (hydrolysis)” value is listed as “not split”.
On Cathepsin D, `CC(C)C[C@H](NC(=O)[C@H](C)NC(=O)C[C@H](O)[C@H](CC(C)C)NC(=O)[C@@H](N)C(C)C)[C@@H](O)CC(=O)O` [Val--X--Ala--X, L-valyl-4-amino-3-hydroxy-6-methylheptanoyl-L-alanyl-4-amino-3-hydroxy-6-methylheptanoic acid] gave an IC50 of 12900 nM. The “Acute toxicity(mg/kg) LD0” value in the series on mice [2] is recorded as at least 5000 mg/kg. In addition, the solubility result in “Solubility in solvents” (ether, ethyl acetate, and butyl acetate) is “insoluble”; in “Solubility in solvents” (methanol, ethanol, pyridine, and acetic acid) it was “soluble”; in the series “Solubility in solvents” (n-proponal, n-butanol, n-amyl alcohol and acetone) it was “slightly soluble”. The tolerated oral administration entry in the series with rats, in the series with rabbits, in the series with dogs and in the series on mice [4] was “more than 2.000 mg/kg” in each case.

These data come from US4055468A, “Processes for producing physiologically active peptide and its N-acyl derivatives” (priority 1974, dated 1977).
